Values of other authors in patent US20060182688A1, “Metronidazole-based tinted topical pharmaceutical compositions” (GALDERMA S.A., priority 2003, published 2006).

System: rosacea

## Cc1ncc([N+](=O)[O-])n1CCO [metronidazole, 1-(2-hydroxyethyl)-2-methyl-5-nitroimidazole]
200 mg twice a day
  effect on erythema: ineffective
  effect on the papules and pustules of rosacea: had therapeutic effects
rosacea
  action on the clinical signs such as erythema, telangiectasia or redness: no action
  effect against the papules and pustules: effective
  effect on the inflammatory lesions: effectively improves
